# Experiments:
# [1] = system: fibrin gel constructs; test: Isolated tissue bath, relaxation of norepinephrine constriction; type: cell-based, ovine; details: for relaxation of norepinephrine constriction: SNAP 10^−5 M, norepinephrine 3×10^−6
# [2] = system: fibrin gel constructs; test: Isolated tissue bath, constriction of construct rings; type: cell-based, ovine
structure (smiles),measurement,setting,value
CC(=O)N[C@@H](C(=O)O)C(C)(C)SN=O (racemic) [SNAP],relaxation of norepinephrine constriction,[1]; non-pulsed constructs,42 % of constriction
same,relaxation of norepinephrine constriction,[1]; pulsed constructs,fully
same,"relaxation of norepinephrine constriction compared with 0, 10 and 20 μg/ml aprotinin","[1]; SNAP 10^−7 and 10^−6 M, norepinephrine 10^−6 M, non-pulsed constructs, 200 μg/ml aprotinin",much greater
[Cl-].[K+] [KCl],constriction,"[2]; 118 mM KCl, non-pulsed constructs grown with 10 μg/ml aprotinin",18446±4027 dynes/cm^2
same,constriction,"[2]; 118 mM KCl, non-pulsed constructs grown with 20 μg/ml aprotinin",12244±2083 dynes/cm^2
same,constriction,"[2]; 118 mM KCl, non-pulsed constructs grown with 200 μg/ml aprotinin",6056±2003 dynes/cm^2
same,constriction,"[2]; 118 mM KCl, pulsed constructs grown with 10 μg/ml aprotinin",19274±8302 dynes/cm^2
same,constriction,"[2]; 118 mM KCl, pulsed constructs grown with 20 μg/ml aprotinin",8896±1347 dynes/cm^2
same,constriction,"[2]; 118 mM KCl, pulsed constructs grown with 200 μg/ml aprotinin",2232±475 dynes/cm^2
CCCCC[C@H](O)/C=C/[C@@H]1[C@@H](C/C=C\CCCC(=O)O)[C@H]2CO[C@@H]1C2 [U46619],constriction,"[2]; U46619 3×10^−7, non-pulsed constructs, 0 μg/ml aprotinin",1160±775 dynes/cm^2
same,constriction,"[2]; U46619 3×10^−7, non-pulsed constructs, 200 μg/ml aprotinin",2140±416 dynes/cm^2
same,constriction,"[2]; U46619 3×10^−7, pulsed constructs, 10 μg/ml aprotinin",2670±944 dynes/cm^2
same,constriction,"[2]; U46619 3×10^−7, pulsed constructs, 200 μg/ml aprotinin",973±240 dynes/cm^2
